Our source for the IC50 and Ki values is patent US7994202B2, “Bicyclic nitrogen-containing heterocyclic compounds” (Asahi Kasei Pharma Corporation, priority 2008, dated 2011).

Assay [1] addresses T1, human EP1 receptor (Homo sapiens, UniProt P34995).
T1 construct: expressed in transfected cells
T1 sequence (P34995 1-402): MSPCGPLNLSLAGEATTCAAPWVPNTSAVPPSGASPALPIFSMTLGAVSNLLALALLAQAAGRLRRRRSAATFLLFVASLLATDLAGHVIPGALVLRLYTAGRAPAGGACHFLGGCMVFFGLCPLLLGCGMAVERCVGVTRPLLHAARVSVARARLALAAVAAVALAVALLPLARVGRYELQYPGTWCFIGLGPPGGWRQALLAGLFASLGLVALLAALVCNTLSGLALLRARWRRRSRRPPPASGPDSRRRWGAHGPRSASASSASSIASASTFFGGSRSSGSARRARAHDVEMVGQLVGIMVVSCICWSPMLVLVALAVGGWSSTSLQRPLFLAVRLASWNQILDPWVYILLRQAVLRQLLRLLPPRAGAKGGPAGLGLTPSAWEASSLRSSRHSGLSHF
Put plainly: Antagonist activity using cells expressing human EP1 receptor (SRE-luciferase reporter activity, PGE2 10 nM). It is filed as cell-based. Conditions: HEK293 cells stably expressing human EP1 receptor, 6 hours, read-out: IC50 value in the measurement of antagonist activity using human EP1 receptor expressing cells. The text has this:
(§1) Measurement of an Antagonist Activity by Using Cells Expressing Human EP1 Receptor
As a result of searching Refseq Database for prostaglandin E receptor, genetic information of human EP1 (NM_000955) receptor was obtained. Based on this sequence information, human EP1 receptor gene was cloned by PCR using human cDNA as a template and by an ordinary method to give human EP1 receptor. Then, HEK293 in which the receptor is stably expressed was established, together with a reporter gene (SRE-Luciferase) in which serum responsible element (SRE) is added at the upstream region of firefly luciferase gene. The resulting cells were seeded to a 96 well plate (5×10^4 cells/well) and cultured for one day. To the plate, PGE2 (200 nM, final concentration 10 nM) and the test compound (in an amount of 1/20, 20× of the final concentration) were added to initiate the reaction. After allowing the reaction to proceed at 37° C. for 6 hours, the medium was aspirated off, added with a luminescent agent and the reporter activity was measured. […]
(A reporter such as luciferase makes a cellular process visible.)

Assay [2] concerns the target T1, human EP1 receptor. Put plainly: Antagonist activity using cells expressing human EP1 receptor (intracellular Ca2+ assay, Fura 2-AM). It is filed as cell-based. To be noted: HEK293 cells stably expressing human EP1 receptor, PGE2 10 nM. On the procedure: as §1
Cells expressing human EP1 receptor were suspended in an assay buffer to the concentration of 5×10^6 cells/ml, added with Puronic F-127 (final concentration 0.2%), and Fura 2-AM (final concentration 5 uM), followed by incubation at 37° C. for 30 minutes. After washing twice with the assay buffer, the cells were again suspended in the assay buffer to 1×10^6 cells/60 ul, and then transferred to a 96 well UV plate (1×10^6 cells/60 ul/well). Thereafter, by using a fluorescent chemical screening system (FDSS4000, Hamamatsu Photonics K.K.), intracellular Ca^2+ concentration was measured after adding 20 ul of each of the test compounds and PGE2 (5× of the final concentration for both). Ca^2+ concentration was measured by determining fluorescence intensity after irradiation with two excitation wavelengths, i.e., 340 and 380 nm.
Furthermore, EP1 antagonist activity was calculated as a ratio (%) of inhibiting increase in intracellular Ca^2+ concentration by PGE2 (10 nM).
Assay buffer: 20 mM HEPES/KOH (pH 7.4), 115 mM NaCl, 5.4 mM KCl, 0.8 mM MgCl2, 0.8 mM CaCl2, 13.8 mM D-glucose, 0.1% BSA

Assay [3] has as its target T1, human EP1 receptor. The assay is described as follows: Receptor binding test using cells expressing human EP1 receptor ([3H]PGE2 binding inhibition, membrane fraction). Conditions: membrane fraction of HEK293 cells expressing human EP1 receptor, [3H]PGE2 1 nM; read-out: Ki value in the measurement of [3H]PGE2 binding inhibitory activity.
Method: Receptor Binding Test Using Cells Expressing Human EP1 Receptor
Inhibitory activity of the test compounds on binding of [^3H]PGE2 in HEK293 cells stably expressing human EP1 receptor was measured.
HEK293 cells, which stably express human EP1 receptor, were established by using the gene for human EP1 receptor, and then a membrane fraction was prepared therefrom. Thus-prepared membrane fraction was incubated at 30° C. for 90 minutes with a reaction solution (200 μL/well) which includes the test compound and [^3H]PGE2. Upon the completion of the reaction, the reaction solution was aspirated off under reduced pressure, and the [^3H]PGE2 bound to the membrane fraction was trapped by using Unifilter Plateg CF/C (manufactured by Packard) and the bound radioactivity was counted with a liquid scintillator.
Kd value was obtained from a Scatchard plot. Non-specific binding was obtained from the binding in the presence of an excess amount (10 μM) of non-labeled PGE2. For the measurement of an inhibitory activity of the test compound on [^3H]PGE2 binding, [^3H]PGE2 (1 nM) and various concentrations of the test compound were added. Meanwhile, for all of the reactions, the buffer as described below was used.
Buffer; 10 mM MES/NaOH (pH 6.0), 10 mM MgCl2, 1 mM EDTA, 0.1% BSA
Dissociation constant of the compounds, i.e., Ki, was obtained according to the following equation. […]

For `O=C(O)c1csc(Cn2nc(-c3ccccc3)c3ccccc32)n1` [Exp.7, 2-{(3-phenyl-1H-indazol-1-yl)methyl}thiazole-4-carboxylic acid], the half-inhibitory concentration (IC50) (commonly the concentration that gives 50% inhibition) on human EP1 receptor [1] was in the range of 20 to 100 nM. On to `Cc1ccccc1-c1nn(-c2nc(C(=O)O)cs2)c2ccccc12` [Exp.9], for which the IC50 on human EP1 receptor [1] is at most 20 nM; against human EP1 receptor [2] it was 100 to 300 nM. For `O=C(O)c1csc(-n2nc(-c3cccc(O)c3)c3ccccc32)n1` [Exp.16] the same measures were 20 to 100 nM and 100 to 300 nM. Take `O=C(O)c1ccc(-n2nc(-c3ccccc3)c3ccccc32)s1` [Exp.94]: on human EP1 receptor [1], the IC50 lay within 100 to 500 nM. As for `O=C(O)c1csc(-n2nc(-c3ccccc3)c3c2CC(C(F)(F)F)CC3)n1` (stereo not shown) [Exp.102], the IC50 on human EP1 receptor [1] was at most 20 nM. On to `O=C(O)c1csc(Cn2nc(-c3ccccc3)c3ccc(C(F)(F)F)cc32)n1` [Exp.104], for which, at human EP1 receptor [1], the half-maximal inhibitory concentration (IC50) is at most 20 nM.

Regarding `O=C(O)c1csc(-n2nc(C3=CCCCO3)c3ccc(C(F)(F)F)cc32)n1` [Exp.105], the figures for the IC50 on human EP1 receptor [1] and at human EP1 receptor [2] were at most 20 nM and at most 100 nM, respectively. In addition, the inhibition constant (Ki) – broadly, the dissociation constant of the complex between target and ligand, obtained from inhibition or displacement – at human EP1 receptor [3] is at most 100 nM. `O=C(O)c1csc(-n2nc(-c3ccccc3)c3ccc(C(F)(F)F)nc32)n1` [Exp.106]: the values for the IC50 at human EP1 receptor [1] and against human EP1 receptor [2] were at most 20 nM and at most 100 nM, respectively. For the same compound, the Ki on human EP1 receptor [3] is at most 100 nM. As for `C=Cc1ccc2c(-c3ccccc3)nn(-c3nc(C(=O)OCC)cs3)c2c1` [Exp.116, Ethyl 2-(3-phenyl-6-vinyl-1H-indazol-1-yl)thiazole-4-carboxylate], the IC50 at human EP1 receptor [1] lay within 20 to 100 nM.

Regarding `O=C(O)c1ccc2c(-c3ccccc3)nn(-c3nc(C(=O)O)cs3)c2c1` [Exp.119, 2-(6-Carboxy-3-phenyl-1H-indazol-1-yl)thiazole-4-carboxylic acid], the IC50 on human EP1 receptor [1] was at most 20 nM. On the same count and under the same terms, in the case of `CC(=O)Nc1ccc2c(-c3ccccc3)nn(-c3nc(C(=O)O)cs3)c2c1` [Exp.122] it was 100 to 500 nM; in that of `CN(C)c1ccc2c(-c3ccccc3)nn(-c3nc(C(=O)O)cs3)c2c1` [Exp.154], at most 20 nM. With `O=C(O)c1csc(-n2nc(-c3ccccc3)c3ncc(C(F)(F)F)cc32)n1` [Exp.164], at human EP1 receptor [1], the IC50 is at most 20 nM. Consider `O=C(O)c1csc(-n2nc(-c3ccccc3)c3ccc(Sc4ccc(OC(F)(F)F)cc4)nc32)n1` [Exp.177], for which the IC50 on human EP1 receptor [1] was 100 to 500 nM.

Turning to `O=C(O)c1csc(-n2nc(-c3ccccc3)c3ccc(Sc4cccc(C(F)(F)F)c4)nc32)n1` [Exp.179], the IC50 on human EP1 receptor [1] was 20 to 100 nM. Same read-out and setting: in the case of `O=C(O)c1csc(-n2nc(-c3cccs3)c3ccccc32)n1` [Exp. 51] it was 20 to 100 nM.

With `N#Cc1ccc2c(-c3ccccc3)nn(-c3nc(C(=O)O)cs3)c2c1` [Exp. 118, 2-(6-Cyano-3-phenyl-1H-indazol-1-yl)thiazole-4-carboxylic acid], the IC50 on human EP1 receptor [1] is 20 to 100 nM. On the same count and under the same terms, with `Cn1cncc1C(=O)Nc1ccc2c(-c3ccccc3)nn(-c3nc(C(=O)O)cs3)c2c1` [Exp. 130] the figure was 100 to 500 nM. As to `O=C(O)c1csc(-n2nc(-c3ccccc3)c3ccc(NC(=O)C4CCCC4)cc32)n1` [Exp. 131], at human EP1 receptor [1], the IC50 fell in the range of 100 to 500 nM. The same measure, in the same setting: with `O=C(O)c1csc(-n2nc(-c3ccccc3)c3ccc(NC(=O)C45CC6CC(CC(C6)C4)C5)cc32)n1` [Exp. 133] the figure was 100 to 500 nM. As to `O=C(O)c1csc(-n2nc(-c3ccccc3)c3ccc(NC(=O)C4CC4)cc32)n1` [Exp. 135], on human EP1 receptor [1], the IC50 was in the range of 100 to 500 nM. The same measure, in the same setting: in the case of `CC(C)S(=O)(=O)Nc1ccc2c(-c3ccccc3)nn(-c3nc(C(=O)O)cs3)c2c1` [Exp. 141] it was 100 to 500 nM; in that of `CCC(C)S(=O)(=O)Nc1ccc2c(-c3ccccc3)nn(-c3nc(C(=O)O)cs3)c2c1` (stereo not shown) [Exp. 142], 100 to 500 nM. On the same count and under the same terms, with `O=C(O)c1csc(-n2nc(-c3ccccc3)c3ccc(NCc4ccccc4F)cc32)n1` [Exp. 145] the figure was 100 to 500 nM; with `O=C(O)c1csc(-n2nc(-c3ccccc3)c3ccc(NCc4cccc(F)c4)cc32)n1` [Exp. 146], 100 to 500 nM. On the same count and under the same terms, in the case of `O=C(O)c1csc(-n2nc(-c3ccccc3)c3ccc(NCc4ccc(F)cc4)cc32)n1` [Exp. 147] it was 100 to 500 nM; in that of `O=C(O)c1csc(-n2nc(-c3ccccc3)c3ccc(NCc4ccccn4)cc32)n1` [Exp. 148], 20 to 100 nM. Regarding `O=C(O)c1csc(-n2nc(-c3ccccc3)c3ccc(NCc4cccnc4)cc32)n1` [Exp. 149], at human EP1 receptor [1], the IC50 is 100 to 500 nM. On the same count and under the same terms, with `O=C(O)c1csc(-n2nc(-c3ccccc3)c3ccc(NCC4CCOC4)cc32)n1` (stereo not shown) [Exp. 150] the figure was 100 to 500 nM; with `CCC(C)CNc1ccc2c(-c3ccccc3)nn(-c3nc(C(=O)O)cs3)c2c1` (stereo not shown) [Exp. 151], 100 to 500 nM. Still for that read-out and setting: in the case of `O=C(O)c1csc(-n2nc(-c3ccccc3)c3ccc(NCCc4ccccc4)cc32)n1` [Exp. 152] it was 20 to 100 nM; in that of `O=C(O)c1csc(-n2nc(-c3ccccc3)c3ccc(Cl)cc32)n1` [Exp. 156], at most 20 nM.

With `O=C(O)c1csc(-n2nc(-c3ccccc3)c3ccc(Br)cc32)n1` [Exp. 157], at human EP1 receptor [1], the IC50 is at most 20 nM. On to `O=C(O)c1csc(-n2nc(-c3ccccc3)c3ccc(I)cc32)n1` [Exp. 158], for which, at human EP1 receptor [1], the half-maximal inhibitory concentration (IC50) is at most 20 nM. Same read-out and setting: with `C/C=C/c1ccc2c(-c3ccccc3)nn(-c3nc(C(=O)O)cs3)c2c1` [Exp. 159] the figure was at most 20 nM; with `C/C=C\c1ccc2c(-c3ccccc3)nn(-c3nc(C(=O)O)cs3)c2c1` [Exp. 160], at most 20 nM; with `C=Cc1ccc2c(-c3ccccc3)nn(-c3nc(C(=O)O)cs3)c2c1` [Exp. 162], at most 20 nM. Same read-out and setting: with `CCSc1ccc2c(-c3ccccc3)nn(-c3nc(C(=O)O)cs3)c2n1` [Exp. 165] the figure was 100 to 500 nM. `CC(C)C(C)Sc1ccc2c(-c3ccccc3)nn(-c3nc(C(=O)O)cs3)c2n1` (stereo not shown) [Exp. 166]: on human EP1 receptor [1], the IC50 fell in the range of 100 to 500 nM. Turning to `O=C(O)c1csc(-n2nc(-c3ccccc3)c3ccc(N4CCC4)nc32)n1` [Exp. 167], at human EP1 receptor [1], the IC50 fell in the range of 20 to 100 nM. `O=C(O)c1csc(-n2nc(-c3ccccc3)c3ccc(Sc4ccccc4F)nc32)n1` [Exp. 175]: on human EP1 receptor [1], the IC50 lay within 20 to 100 nM. Turning to `O=C(O)c1csc(-n2nc(-c3ccccc3)c3ccc(SCc4ccccc4)nc32)n1` [Exp. 176], at human EP1 receptor [1], the IC50 lay within 100 to 500 nM. The same measure, in the same setting: in the case of `O=C(O)c1csc(-n2nc(-c3ccccc3)c3ccc(Sc4cccc(O)c4)nc32)n1` [Exp. 178] it was 20 to 100 nM.
